Measured values taken from patent EP0623343A1, “Ketamine analogues for the treatment of thrombocytopenia” (GENENTECH, INC., priority 1993, dated 1994).
Read-outs that look alike come from different tables or passages of the source.

Experiments:
CMK cells = test: CMK assay for thrombopoietin (TPO) induction of platelet antigen GPIIbIIIa expression; settings: for CMK: Thrombopoietic activity, concentration at which active; for minimal effective concentration: Homo sapiens, CMK
DAMI cells = test: DAMI assay measuring endomitotic activity (polyploidization) of DAMI cells; settings: for DAMI: Thrombopoietic activity, concentration at which active
[1] = Thrombopoeitic activity in various assays (not specified further); settings: for thrombopoeitic activity in various assays: no activity at concentrations as high as 200 µM
C57BL6 mice = test: Thrombopoietin (TPO) in vivo assay (Mouse Platelet Rebound Assay); settings: @ 2 mg/mouse/d; IP injections on days 5 and 6 after anti-platelet serum
Protocol: Thrombopoietin (TPO) in vivo assay (Mouse Platelet Rebound Assay)
In vivo Assay for ³⁵S Determination of Platelet Production
C57BL6 mice (obtained from Charles River) were injected intraperitoneally (IP) with 1 ml goat anti-mouse platelet serum (6 amps) on day 1 to produce thrombocytopenia. On days 5 and 6, mice were given two IP injections of the factor or PBS as the control. On day 7, thirty µCi of Na₂³⁵SO₄ in 0.1 ml saline were injected intravenously and the percent ³⁵S incorporation of the injected dose into circulating platelets was measured in blood samples obtained from treated and control mice. Platelet counts and leukocyte counts were made at the same time from blood obtained from the retro-orbital sinus.

[2] = after 1-2 weeks treatment; patient had 37,000-58,000/µl before; cited from earlier work
[3] = read-out: active at concentration in the CMK assay
[4] = read-out: active at concentration in the DAMI assay
[5] = read-out: CMK(µM), Thrombopoietic activity, concentration at which active, 'inactive @200' given as >200
[6] = read-out: DAMI(µM), Thrombopoietic activity, concentration at which active, 'inactive @200' given as >200
[7] = read-out: active / inactive at concentration in the DAMI assay

Compound	minimal effective concentration (CMK cells; [3]) [µM]	minimal effective concentration (CMK cells; [5]) [µM]	minimal effective concentration (DAMI cells; [6]) [µM]	also measured
NC1(c2ccccc2Cl)CCC=CC1=O (single isomer, unassigned; (+)) [(+)-V, (+)-6-amino-6-(2-chlorophenyl)-2-cyclohexen-1-one]	–	–	–	active at concentration in the CMK assay (CMK cells): 6 µm; CMK (CMK cells; 'inactive @200' given as >200): 6 µM; DAMI (DAMI cells; 'inactive @200' given as >200): 12 µM
NC1(c2ccccc2Cl)CCC=CC1=O (single isomer, unassigned; (-)) [(-)-V, (-)-6-amino-6-(2-chlorophenyl)-2-cyclohexen-1-one]	6	–	–	CMK (CMK cells; 'inactive @200' given as >200): 6 µM; DAMI (DAMI cells; 'inactive @200' given as >200): 12 µM; minimal effective concentration (DAMI cells; [4]): 6 µM
O=C1C=CC(=O)c2ccccc21 [1,4-naphthoquinone, reference compound]	–	< 6	> 200	–
NCC(=O)NC1(c2ccccc2Cl)CCC=CC1=O (stereo not shown) [EXAMPLE IV, 6-(2-aminoacetyl)amino-6-(2-chlorophenyl)-2-cyclohexen-1-one]	6	–	–	minimal effective concentration (DAMI cells; [4]): 6 µM
CSCCC(=O)NC1(c2ccccc2Cl)CCC=CC1=O (stereo not shown) [EXAMPLE V, 6-(2-chlorophenyl)-6-(3-(methylthio)propanoyl)amino-2-cyclohexen-1-one]	6	–	–	–
NC1(c2ccccc2Cl)CCCCC1=O (stereo not shown) [IV, 2-(amino)-2-(2-chlorophenyl) cyclohexanone, reference compound]	–	> 200	> 200	thrombopoeitic activity in various assays [1]: > 200 µM
NC1(c2ccccc2Cl)CCC=CC1=O (stereo not shown) [V, 6-amino-6-(2-chlorophenyl)-2-cyclohexen-1-one]	15	6	–	In vivo(% ctl.@ mg/mouse/d) (C57BL6 mice): 131 @ 2 % ctl.; DAMI (DAMI cells; 'inactive @200' given as >200): 25 µM; minimal effective concentration (DAMI cells; [7]): 30 µM
CC(=O)NC1(c2ccccc2Cl)CCC=CC1=O (stereo not shown) [VI, 6-acetylamino-6-(2-chlorophenyl)-2-cyclohexen-1-one]	–	6	12	thrombopoeitic activity compared with 5,6-dehydronorketamine ([1]; N-acylated derivative): even more active
O=C(CCCC[C@@H]1SC[C@@H]2NC(=O)N[C@@H]21)NC1(c2ccccc2Cl)CCC=CC1=O (stereo partly shown) [VII, 6-biotinoylamino-6-(2-chlorophenyl)-2-cyclohexen-1-one]	–	12	25	–
Cc1nnc2n1-c1sc(CCC(=O)N3CCOCC3)cc1C(c1ccccc1Cl)=NC2 [WEB 2086, 4-(2-chlorphenyl)-9-methyl-2-[3-(4-morpholinyl)-3-propanon-1-yl]6H-thieno[3,2,f][1,2,4]triazolo[4,3,a,][1,4] diazepin, reference compound]	–	> 200	> 200	platelet counts [2]: 140,000-190,000 /µl; minimal effective concentration (DAMI cells; [7]): > 200 µM
O=C1C=CCCC1 [cyclohexenone, reference compound]	–	200	200	–
CNC1(c2ccccc2Cl)CCCCC1=O (stereo not shown) [ketamine (III), 2-(2-chlorophenyl)-2-(methylamino) cyclohexanone, reference compound]	–	> 200	> 200	thrombopoeitic activity in various assays [1]: > 200 µM
